One may read the melting point as the temperature of the solid-liquid transition. Usually IC50 stands for the concentration at which inhibition is half-maximal. Usually solubility stands for the dissolved amount per volume that the medium holds.

Here are results for 26 compounds from patent US7465718B2, “Ansamycins having improved pharmacological and biological properties” (Conforma Therapeutics Corporation, priority 2002, dated 2008).

For one data set, the system named is HIV-1ROJO. Kind of data set: Anti-HIV PBMC assay (reverse transcriptase activity in supernatant). The note with it: for TI (therapeutic index, TC50/IC50): HIV-1ROJO in PBMCs; for IC50: read-out: IC50 (μM) (50% inhibition of virus replication), HIV-1ROJO in fresh human PBMCs, 7 days.
Data set [1] can be described thus: MTS assay to measure cytotoxicity of PBMC. The class given is cell-based, human. The note with it: human, PBMC, PBMCs without virus, read-out: TC50 (μM) (50% cytotoxicity). The procedure: PBMC's in 96 well plates that were treated with compounds (without virus) were assayed for cell viability and compound toxicity using an MTS assay (CellTiter 96 Aqueous Non-Radioactivity Cell Proliferation Assay, Promega, Madison; Wis.).
(Formazan colour is commonly taken as a measure of viable cells.)

The target in another data set is HSP90 (bis-ANS treated). Kind of data set: Biotin-geldanamycin competition binding, bis-ANS treated HSP90.
Data set [2] in a line: Water solubility studies (salts dissolved in water at room temperature). The class given is physicochemical. The settings on record: thermodynamic from solid, HCl salt, read-out: Solubility of the HCl salt in H2O. The procedure:
Various salts were prepared as described in the example section and dissolved in water at room temperature.

The test system of a further data set is Her-2. Kind of data set: HER2 inhibition assay (Her-2 degradation in MCF7 cells, flow cytometry). The class given is cell-based. The settings on record: read-out: HER-2 degradation (IC50 nM). The procedure: MCF7 cells are seeded in 24 well plates at a density of approximately 30,000 cells/well and allowed to grow for 16 hours in DMEM supplemented with 10% FBS. Drug is then added at a concentration range of 100 uM to 0.01 uM. Cells are incubated for an additional 24. […] 10,000 events were collected per sample. A fluorescence histogram was generated and the mean fluorescence intensity (mfi) of each sample was determined using Cellquest software. The background was defined as the mfi generated from cells incubated with control IgG, and was subtracted from each sample stained with the HER-2/neu Ab. Percent degradation of Her-2 was calculated as follows: % Her-2 degradation=(mfi HER-2 sample)/(mfi HER-2 untreated cells)×100 Water Solubility Studies

The test system of data set [3] is HSP90 (cell lysate, high affinity). Kind of data set: Biotin-geldanamycin competition binding, HSP90 in cell lysate (high affinity). The note with it: for ratio: rHsp90 (low affinity) IC50 over lysate (high affinity) IC50; for IC50: read-out: Lysate (high affinity) IC50 nM, inhibition of biotin-GM binding to HSP90 in cell lysate, 4° C.
The target in the next data set is rHsp90 (low affinity). Kind of data set: Biotin-geldanamycin competition binding, purified native HSP90 protein (rHsp90, low affinity). The note with it: read-out: rHsp90 (low affinity) IC50 nM; inhibition of biotin-GM binding to purified HSP90, 4° C.
The test system of the next data set is SKOV-3 ovarian xenograft. Kind of data set: SKOV-3 ovarian xenograft model. The settings on record: tumors 200 mm3 before commencement of treatment. The class given is in vivo. An excerpt: Compounds have also been tested in HER-2 over-expressing tumor models such as BT474 breast and SKOV-3 ovarian carcinoma A therapy experiment with SKOV-3 is shown in FIG. 6. The treatment, doses, and schedule were the same as used in the A549 and MDA435 experiments. In this case, the tumors were allowed to become established and grow to a relatively large size (200 mm3) before commencement of treatment.

Molecules are shown by their SMILES. A value given as a limit tells only on which side of the number the result lay.

`CCOP(=O)(NCCCCNC1=C2CC(C)CC(OC)C(O)C(C)/C=C(\C)C(OC(N)=O)C(OC)/C=C\C=C(/C)C(=O)NC(=CC1=O)C2=O)OCC` (stereo not shown) showed a melting point of 94.8 to 96.2 °C.
`COC1/C=C\C=C(/C)C(=O)NC2=CC(=O)C(NC(=O)NCc3ccc(F)cc3)=C(CC(C)CC(OC)C(O)C(C)/C=C(\C)C1OC(N)=O)C2=O` (stereo not shown): the melting point lay in the range of 175 to 177 °C.
With `COC1/C=C\C=C(/C)C(=O)NC2=CC(=O)C(NC(=O)c3snnc3C)=C(CC(C)CC(OC)C(O)C(C)/C=C(\C)C1OC(N)=O)C2=O` (stereo not shown), the melting point was in the range of 157 to 159 °C.
The same measure, in the same setting: the figure for `COC1/C=C\C=C(/C)C(=O)NC2=CC(=O)C(NC(=O)c3c(C)noc3C)=C(CC(C)CC(OC)C(O)C(C)/C=C(\C)C1OC(N)=O)C2=O` (stereo not shown) is 190 to 192 °C.
Same read-out and setting: under `COC1/C=C\C=C(/C)C(=O)NC2=CC(=O)C(NC(=O)c3cc(C)nn3C)=C(CC(C)CC(OC)C(O)C(C)/C=C(\C)C1OC(N)=O)C2=O` (stereo not shown) stands 193 to 195 °C.
For `C=CCO/N=C1/[C@@H](OC)C[C@H](C)CC2=C(NC(=O)c3ccccc3)C(=O)C=C(NC(=O)/C(C)=C/C=C\[C@H](OC)[C@@H](OC(N)=O)/C(C)=C/[C@@H]1C)C2=O` (stereo in doubt) [Compound #1011], in the data set on HIV-1ROJO, the “TI (therapeutic index, TC50/IC50)” value is 14.5 and the IC50 was determined as 0.2 µM. The CC50 in data set [1] turned out to be 2.9 µM. On HSP90 (bis-ANS treated), this compound showed an IC50 of 5 µM.
In turn, `CO/N=C1/[C@@H](OC)C[C@H](C)CC2=C(NC(=O)c3ccccc3)C(=O)C=C(NC(=O)/C(C)=C/C=C\[C@H](OC)[C@@H](OC(N)=O)/C(C)=C/[C@@H]1C)C2=O` (stereo in doubt) [Compound #1012] gave an IC50 on HSP90 (bis-ANS treated) of 6 µM.
The same measure, in the same setting: the figure for `CCO/N=C1/[C@@H](OC)C[C@H](C)CC2=C(NC(=O)c3ccccc3)C(=O)C=C(NC(=O)/C(C)=C/C=C\[C@H](OC)[C@@H](OC(N)=O)/C(C)=C/[C@@H]1C)C2=O` (stereo in doubt) [Compound #1013] is 5.2 µM.
For `C=CCNC1=C2C[C@@H](C)C[C@H](OC)[C@H](O)[C@@H](C)/C=C(\C)[C@H](OC(N)=O)[C@@H](OC)/C=C\C=C(/C)C(=O)NC(=CC1=O)C2=O` [Compound 17-AAG, 17-allyl amino geldanamycin, reference compound], the IC50 in the data set on HIV-1ROJO is 0.38 µM; in the data set on Her-2, 5 nM. For the same compound, in [2], the solubility is less than 10 µg/mL. The CC50 in data set [1] amounted to 2.02 µM.
Turning to `COC1/C=C\C=C(/C)C(=O)NC2=CC(=O)C(c3ccccc3)=C(CC(C)CC(OC)C(O)C(C)/C=C(\C)C1OC(N)=O)C2=O` (stereo not shown) [Compound #133, 17-phenyl-geldanamycin], the solubility in [2] is less than 10 µg/mL. Also, the IC50 with Her-2 stood at 25 nM.
`COC1C=CC=C(C)C(=O)NC2=CC(=O)C(NCCCN3CCN(CCCNC4=C5CC(C)CC(OC)C(O)C(C)C=C(C)C(OC(N)=O)C(OC)C=CC=C(C)C(=O)NC(=CC4=O)C5=O)CC3)=C(CC(C)CC(OC)C(O)C(C)C=C(C)C1OC(N)=O)C2=O` (stereo not shown) [Compound #207] gave a melting point of 162 °C. Moreover, in data set [2], the solubility was not below 13000 µg/mL. Moreover, the IC50 in the data set on Her-2 was 12 nM.
On to `COC1C=CC=C(C)C(=O)NC2=CC(=O)C(NCCCN(C)CCCNC3=C4CC(C)CC(OC)C(O)C(C)C=C(C)C(OC(N)=O)C(OC)C=CC=C(C)C(=O)NC(=CC3=O)C4=O)=C(CC(C)CC(OC)C(O)C(C)C=C(C)C1OC(N)=O)C2=O` (stereo not shown) [Compound #208], for which the melting point was 153 °C (dec.). For the same compound, in the data set with HIV-1ROJO, the “TI (therapeutic index, TC50/IC50)” value is recorded as 38.6 and the IC50 came to 0.007 µM. Also, in [2], the solubility was not below 20000 µg/mL. In addition, the CC50 in data set [1] was found to be 0.27 µM. Moreover, the IC50 with Her-2 was 11 nM.
`COc1ccccc1C1=C2CC(C)CC(OC)C(O)C(C)/C=C(\C)C(OC(N)=O)C(OC)/C=C\C=C(/C)C(=O)NC(=CC1=O)C2=O` (stereo not shown) [Compound #212, 17-(2-methoxy-phenyl)-geldanamycin]: the solubility in data set [2] is less than 10 µg/mL. Also, the IC50 with Her-2 is 10 nM.
For `COC1/C=C\C=C(/C)C(=O)NC2=CC(=O)C(c3cccs3)=C(CC(C)CC(OC)C(O)C(C)/C=C(\C)C1OC(N)=O)C2=O` (stereo not shown) [Compound #232, 17-(2-thiophen)-geldanamycin], the solubility in data set [2] is less than 10 µg/mL. The half-inhibitory concentration (IC50) in the data set with Her-2 was found to be 80 nM.
Regarding `COC1/C=C\C=C(/C)C(=O)NC2=CC(=O)C(NC(=O)c3ccccn3)=C(CC(C)CC(OC)C(O)C(C)/C=C(\C)C1OC(N)=O)C2=O` (stereo not shown) [Compound #529, 17-picolinoyl-aminogeldanamycin], the melting point was in the range of 195 to 197 °C. Moreover, in [3], the ratio is listed as 67 and the IC50 is 15 nM. The IC50 on rHsp90 (low affinity) was 1000 nM.
`COC1/C=C\C=C(/C)C(=O)NC2=CC(=O)C(NC(=O)c3ccncc3)=C(CC(C)CC(OC)C(O)C(C)/C=C(\C)C1OC(N)=O)C2=O` (stereo not shown) [Compound #530, 17-isonicotinoyl-aminogeldanamycin] returned a melting point of 167 to 169 °C. Besides, in [2], the solubility was more than 2000 µg/mL. Further, in the data set on Her-2, the IC50 worked out at 100 nM.
Compound `COC1/C=C\C=C(/C)C(=O)NC2=CC(=O)C(NC(=O)c3cc(C)nn3C(C)(C)C)=C(CC(C)CC(OC)C(O)C(C)/C=C(\C)C1OC(N)=O)C2=O` (stereo not shown) [Compound #561, 17-(1-t-butyl-3-methyl-1H-pyrazole-5-carbonyl-amino)-geldanamycin] registered a melting point of 216 to 218 °C.
With `COC1/C=C\C=C(/C)C(=O)NC2=CC(=O)C(NC(=O)c3ccccc3)=C(CC(C)CC(OC)C(O)C(C)/C=C(\C)C1OC(N)=O)C2=O` (stereo not shown) [Compound #563, 17-(benzoyl)-aminogeldanamycin], the melting point lay within 218 to 220 °C. The “tumor growth in SKOV-3 xenograft” value in the data set on SKOV-3 ovarian xenograft is on record as “suppressed tumor growth almost completely”. In addition, in [3], the ratio is on record as 90 and the IC50 was 50 nM. For the same compound, the IC50 on rHsp90 (low affinity) worked out at 4500 nM.
Take `CO[C@H]1/C=C\C=C(/C)C(=O)NC2=CC(=O)C(NC(=O)c3ccc(CN(C)C)cc3)=C(C[C@@H](C)C[C@H](OC)[C@H](O)[C@@H](C)/C=C(\C)[C@@H]1OC(N)=O)C2=O` [Compound #687, 17-(4-dimethylaminomethyl-benzoyl)-aminogeldanamycin]: the melting point fell in the range of 203 to 206 °C. Further, in data set [3], the ratio is 250 and the IC50 was 8 nM. Also, the IC50 at rHsp90 (low affinity) was 2000 nM.
Turning to `CO[C@H]1/C=C\C=C(/C)C(=O)NC2=CC(=O)C(NC(=O)OCc3ccc(OC(C)=O)cc3)=C(C[C@@H](C)C[C@H](OC)[C@H](O)[C@@H](C)/C=C(\C)[C@@H]1OC(N)=O)C2=O` [Compound #709], in data set [3], the ratio turned out to be 167 and the IC50 is 9 nM. For the same compound, the IC50 at rHsp90 (low affinity) is 1500 nM.
For the compound `CO[C@H]1/C=C\C=C(/C)C(=O)NC2=CC(=O)C(NC(=O)OCC(C)C)=C(C[C@@H](C)C[C@H](OC)[C@H](O)[C@@H](C)/C=C(\C)[C@@H]1OC(N)=O)C2=O` [Compound #749], in the data set with HIV-1ROJO, the “TI (therapeutic index, TC50/IC50)” value is given as 56.0 and the IC50 turned out to be 0.02 µM. In addition, the CC50 in [1] is 1.12 µM.
For `CO[C@H]1/C=C\C=C(/C)C(=O)NC2=CC(=O)C(NC(=O)c3ccccc3)=C(C[C@@H](C)C[C@H](OC)[C@@H](OC(=O)CBr)[C@@H](C)/C=C(\C)[C@@H]1OC(N)=O)C2=O` [Compound #981], the IC50 on HSP90 (bis-ANS treated) was determined as 5.5 µM.
On the same count and under the same terms, the figure for `CO[C@H]1/C=C\C=C(/C)C(=O)NC2=CC(=O)C(NC(=O)c3ccccc3)=C(C[C@@H](C)C[C@H](OC)[C@@H](OC(=O)/C=C/c3cccs3)[C@@H](C)/C=C(\C)[C@@H]1OC(N)=O)C2=O` [Compound #982] is 5.5 µM.
Same read-out and setting: under `CO[C@H]1/C=C\C=C(/C)C(=O)NC2=CC(=O)C(NC(=O)c3ccccc3)=C(C[C@@H](C)C[C@H](OC)[C@@H](OC(=O)Cc3ccccc3)[C@@H](C)/C=C(\C)[C@@H]1OC(N)=O)C2=O` [Compound #983] stands 7 µM; under `CO[C@H]1/C=C\C=C(/C)C(=O)NC2=CC(=O)C(NC(=O)c3ccccc3)=C(C[C@@H](C)C[C@H](OC)[C@@H](OC(=O)Cc3cccs3)[C@@H](C)/C=C(\C)[C@@H]1OC(N)=O)C2=O` [Compound #984], 4.2 µM.
The compound `CCCCCC(=O)O[C@@H]1[C@@H](OC)C[C@H](C)CC2=C(NC(=O)c3ccccc3)C(=O)C=C(NC(=O)/C(C)=C/C=C\[C@H](OC)[C@@H](OC(N)=O)/C(C)=C/[C@@H]1C)C2=O` [Compound #985] gave an IC50 at HSP90 (bis-ANS treated) of 12 µM.
